Earlier results, collected in patent US20200113803A1, “ANHYDROUS COMPOSITION OF SMALL-MOLECULE POLYSACCHARIDES AND APPLICATION THEREOF” (SAGE PHARMACEUTICALS, INC., priority 2016, published 2020).

Conditions: background statement

Substance: Hyaluronic acid [HA]
- ability of HA to hold water: up to 1000 ml water for 1 g of HA
